The source of these data is PubChem BioAssay (NCI).

Molecules are shown by their SMILES.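 Following 48 hours of exposure in 96-well plates, responses at five concentrations were used to interpolate endpoints linearly. The concentration for 50% growth inhibition is given as GI50. TGI: concentration producing complete growth inhibition.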

Among the test systems are A549 NSCLC; BT-549 breast; LOX IMVI melanoma; MDA-MB-231 breast; NCI-H522 lung; RXF 393 renal; SK-MEL-2 melanoma; SNB-19 CNS; SNB-75 CNS; UACC-62 melanoma.
Holding throughout (test): NCI anticancer screen, dose series, 48 h

Consider `CC(C)C[C@H](NC(=O)/C=C/Cn1ccc2ccccc2c1=O)B(O)O`, for which the GI50 is 5.35 µM in the test on A549 NSCLC; 2.67 µM in the test on BT-549 breast; 2.88 µM in the test on LOX IMVI melanoma; 2.85 µM in the test on MDA-MB-231 breast; 2.52 µM in the test with NCI-H522 lung; 2.13 µM with RXF 393 renal. For the same molecule, the GI50 is 3.12 µM with SK-MEL-2 melanoma, 6.49 µM in the test on SNB-19 CNS, 3.2 µM with SNB-75 CNS and 3.35 µM in the test with UACC-62 melanoma. Moreover, the TGI with A549 NSCLC is > 100 µM; in the test on BT-549 breast, 13.7 µM; in the test on LOX IMVI melanoma, 10.7 µM; with MDA-MB-231 breast it was 8.14 µM; in the test on NCI-H522 lung, 6.39 µM; with RXF 393 renal it was 5.15 µM. For the same molecule, the TGI in the test on SK-MEL-2 melanoma was 23.5 µM; in the test with SNB-19 CNS, > 100 µM; in the test on SNB-75 CNS, 16.3 µM; in the test with UACC-62 melanoma it was 14.9 µM.

As to `COc1cc(C(=O)c2cc(C)c3[nH]c4ccc(C)cc4c3c2C)cc(OC)c1OC`, the GI50 in the test on A549 NSCLC, in the test with BT-549 breast, with LOX IMVI melanoma, in the test on MDA-MB-231 breast, in the test with NCI-H522 lung and in the test with RXF 393 renal was < 0.01 µM throughout. In addition, the GI50 with SNB-19 CNS, in the test with SNB-75 CNS and in the test with UACC-62 melanoma was < 0.01 µM in each case. Besides, the TGI with A549 NSCLC is > 100 µM; with BT-549 breast, 2.45 µM; in the test on LOX IMVI melanoma, > 100 µM; in the test with RXF 393 renal, 4.84 µM; in the test with SK-MEL-2 melanoma, > 100 µM; in the test with SNB-19 CNS, > 100 µM. For the same molecule, in the test with UACC-62 melanoma, the TGI was > 100 µM.

With `O=C(O)C1C(Br)(c2ccccc2)C1(Br)c1ccccc1` (stereo unspecified), the TGI in the test on A549 NSCLC is > 100 µM; with BT-549 breast, 49.5 µM; in the test on LOX IMVI melanoma, > 100 µM; in the test with MDA-MB-231 breast it was > 100 µM; in the test on NCI-H522 lung, 43.9 µM; in the test on RXF 393 renal, 41.7 µM. Besides, the TGI with SK-MEL-2 melanoma was 80.2 µM; in the test with SNB-19 CNS it was > 100 µM; in the test on SNB-75 CNS, 93.9 µM; in the test on UACC-62 melanoma it was 64.3 µM.

As for `ClCC[N+]12CC[N+](CCCl)(CC1)C2`, the TGI with A549 NSCLC, in the test on BT-549 breast, in the test with LOX IMVI melanoma, with MDA-MB-231 breast, with NCI-H522 lung and with RXF 393 renal was > 100 µM in each case. Further, the TGI with SK-MEL-2 melanoma, in the test with SNB-19 CNS, in the test on SNB-75 CNS and in the test with UACC-62 melanoma was > 100 µM each time.

As to `CC1=C(O)C(=O)C=C2C1=CC=C1[C@@]2(C)CC[C@@]2(C)[C@@H]3C[C@](C)(C(=O)O)CC[C@]3(C)CC[C@]12C`, the TGI worked out at 2.03 µM in the test on A549 NSCLC; 0.0347 µM with BT-549 breast; 0.0414 µM in the test with LOX IMVI melanoma; 0.0664 µM with MDA-MB-231 breast; 0.0389 µM with NCI-H522 lung; 0.024 µM in the test on RXF 393 renal. Also, the TGI with SK-MEL-2 melanoma was found to be 0.219 µM; in the test on SNB-19 CNS, 0.23 µM; in the test on SNB-75 CNS, 0.327 µM; in the test with UACC-62 melanoma, 0.0669 µM.

For the molecule `O=C1Nc2ccc(F)cc2/C1=C/c1ccc[nH]1`, the GI50 in the test on A549 NSCLC is > 25 µM; with BT-549 breast, > 18.8 µM; with LOX IMVI melanoma, 24.2 µM; in the test with MDA-MB-231 breast, 7.65 µM; with NCI-H522 lung, > 25 µM; in the test with RXF 393 renal, > 18.3 µM. The GI50 in the test with SK-MEL-2 melanoma, with SNB-19 CNS, with SNB-75 CNS and with UACC-62 melanoma was > 25 µM throughout. Also, the TGI in the test with A549 NSCLC, with BT-549 breast, in the test on LOX IMVI melanoma, with MDA-MB-231 breast, with NCI-H522 lung and in the test on RXF 393 renal was > 25 µM each time. For the same molecule, the TGI with SK-MEL-2 melanoma, in the test with SNB-19 CNS, with SNB-75 CNS and in the test with UACC-62 melanoma was > 25 µM each time.

On to `Cc1ccc2[nH]c(O)c(N=Nc3ccc(S(N)(=O)=O)cc3)c2c1`, for which the GI50 with A549 NSCLC is 9.66 µM; with BT-549 breast, 9.88 µM; in the test on LOX IMVI melanoma, 13.1 µM; in the test on MDA-MB-231 breast, > 25 µM; in the test on NCI-H522 lung, 8.94 µM; with RXF 393 renal, 5.27 µM. The GI50 in the test on SK-MEL-2 melanoma was > 25 µM; in the test on SNB-19 CNS it was > 19.1 µM; with SNB-75 CNS it was 8.46 µM; in the test on UACC-62 melanoma, > 23.7 µM. Moreover, the TGI is > 25 µM in the test with A549 NSCLC; > 18.4 µM in the test on BT-549 breast; > 25 µM with LOX IMVI melanoma; > 25 µM with MDA-MB-231 breast; > 25 µM in the test on NCI-H522 lung; 17.5 µM in the test on RXF 393 renal. For the same molecule, the TGI in the test with SK-MEL-2 melanoma, with SNB-19 CNS, in the test on SNB-75 CNS and in the test with UACC-62 melanoma was > 25 µM in each case.

For `COc1cccc2c(=O)c3c(sc12)c(N1CCNCC1)nc1ccccc13`, the GI50 in the test with A549 NSCLC was 1.81 µM; in the test with BT-549 breast it was 13.3 µM; with LOX IMVI melanoma, 1.56 µM; in the test with MDA-MB-231 breast, 1.7 µM; with NCI-H522 lung it was 1.79 µM; in the test on RXF 393 renal, 1.53 µM. Also, the GI50 with SK-MEL-2 melanoma is 1.94 µM; with SNB-19 CNS it was 1.79 µM; with SNB-75 CNS, 1.56 µM; with UACC-62 melanoma, 1.73 µM. Also, the TGI is 4.26 µM with A549 NSCLC; 27.5 µM with BT-549 breast; 3.01 µM in the test on LOX IMVI melanoma; 3.32 µM with MDA-MB-231 breast; 3.69 µM with NCI-H522 lung; 3.05 µM in the test on RXF 393 renal. The TGI is 3.88 µM in the test with SK-MEL-2 melanoma, 3.39 µM in the test with SNB-19 CNS, 2.98 µM with SNB-75 CNS and 3.19 µM with UACC-62 melanoma.

As for `COc1cccc(C#Cc2ccccc2C#CCCCCO)c1`, the GI50 in the test on A549 NSCLC was 4.21 µM; in the test on BT-549 breast, 3.07 µM; with LOX IMVI melanoma it was 6.3 µM; in the test with MDA-MB-231 breast it was 3.41 µM; in the test with NCI-H522 lung, 13.3 µM; with RXF 393 renal, 1.78 µM. For the same molecule, the GI50 in the test with SK-MEL-2 melanoma was 20.5 µM; with SNB-19 CNS, 18.5 µM; in the test on SNB-75 CNS it was 12.8 µM; with UACC-62 melanoma, 5.7 µM. The TGI stood at 17.3 µM in the test with A549 NSCLC; 20.2 µM in the test on BT-549 breast; 21.2 µM with LOX IMVI melanoma; 13.2 µM in the test with MDA-MB-231 breast; 30 µM in the test on NCI-H522 lung; 9.89 µM in the test with RXF 393 renal. In addition, the TGI with SK-MEL-2 melanoma came to 44.8 µM; with SNB-19 CNS, 35.5 µM; with SNB-75 CNS it was 26.3 µM; with UACC-62 melanoma, 19.8 µM.
